Laboratory results reported in ChEMBL document CHEMBL1201862, “PubChem BioAssay data set” (2004).
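A five-concentration, 48-hour dose response in 96-well plates underlies each endpoint, interpolated linearly between surrounding concentrations. GI50 = concentration required for 50% inhibition of growth.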 Calls of active or inactive are those of the source. No stated cut-off is given here; in the data, active = GI50 up to about 1.1 µM and inactive = higher.

How the values were obtained:
Assay in all cases: growth of human tumour cells (NCI), 48 h
DLD-1 = tested on: DLD-1
DMS-273 = tested on: DMS-273
HOP-18 = tested on: HOP-18
KM-20L2 = tested on: KM-20L2
LXFL 529 = tested on: LXFL 529
M19-MEL = tested on: M19-MEL
XF498 = tested on: XF498
SNB-78 = tested on: SNB-78
RXF 631 = tested on: RXF 631

Measured: GI50

CC(=O)c1cccc(NC(=O)/C(=N\NC(C)(C)C)c2c(O)c3ccccc3oc2=O)c1
inactive: DLD-1 > 100 µM | DMS-273 > 100 µM | HOP-18 > 100 µM | KM-20L2 > 100 µM | LXFL 529 > 100 µM | M19-MEL 84.7 µM | XF498 > 100 µM

CCOC(=O)c1[nH]c2cc(OC)c(OC)cc2c1CN(C)C
inactive: DLD-1 > 100 µM | KM-20L2 > 100 µM | SNB-78 > 100 µM

N#Cc1nc(C2OC(COC(=O)c3ccccc3)C(OC(=O)c3ccccc3)C2OC(=O)c2ccccc2)oc1N (stereo not drawn)
inactive: DLD-1 37.2 µM | DMS-273 26.4 µM | HOP-18 10.7 µM | KM-20L2 39 µM | M19-MEL 36.7 µM | SNB-78 22 µM

O=C(/C=C/c1ccccc1)NC1C=Nc2ccc([N+](=O)[O-])cc2NC1=O (stereo not drawn)
inactive: DLD-1 > 100 µM | DMS-273 21.6 µM | KM-20L2 23.3 µM | LXFL 529 34.7 µM | M19-MEL 38.4 µM | SNB-78 > 100 µM | XF498 > 100 µM

Cc1occ2c1C(=O)CC1C2[C@@H](O)CC2C(C)(C)CCC[C@]12C (stereo partly drawn)
inactive: DLD-1 > 100 µM | HOP-18 > 100 µM | KM-20L2 > 100 µM | LXFL 529 > 100 µM | M19-MEL > 100 µM | SNB-78 > 100 µM | XF498 > 100 µM

Cc1c(Cl)cccc1NC(=O)/C(Cl)=C(\Cl)C(=O)O
inactive: DLD-1 18.2 µM | DMS-273 20.9 µM | HOP-18 17.5 µM | KM-20L2 21.6 µM | LXFL 529 19.8 µM | M19-MEL 17 µM | RXF 631 24.8 µM | SNB-78 20 µM

CCN(CC)c1cccc2c1C1(O)CCC3(CC21)OCCCCO3 (stereo not drawn)
inactive: DLD-1 57.1 µM | DMS-273 > 100 µM | HOP-18 > 100 µM | KM-20L2 68.4 µM | LXFL 529 > 100 µM | M19-MEL 91.4 µM | SNB-78 > 100 µM

O=C(CC1(O)C(=O)Nc2ccccc21)c1ccccc1Cl (stereo not drawn)
inactive: DLD-1 > 100 µM | DMS-273 > 100 µM | KM-20L2 > 100 µM | LXFL 529 > 100 µM | M19-MEL > 100 µM | SNB-78 > 100 µM | XF498 > 100 µM

O=C(CSc1nnc(Cc2ccccc2)o1)Nc1ccc(Cl)cc1Cl
inactive: DLD-1 > 100 µM | DMS-273 > 100 µM | HOP-18 > 100 µM | KM-20L2 > 100 µM | LXFL 529 > 100 µM | M19-MEL > 100 µM | SNB-78 > 100 µM

N#CCc1ccc(C(C#N)/C(CCCC(=O)Nc2cccc([N+](=O)[O-])c2)=N\NC(=O)NN)cc1 (stereo not drawn)
inactive: DLD-1 > 100 µM | DMS-273 > 100 µM | HOP-18 > 100 µM | KM-20L2 > 100 µM | LXFL 529 > 100 µM | M19-MEL > 100 µM | SNB-78 > 100 µM

CCNC(=O)O/N=C1\CCC2[C@@H]3CC=C4C[C@@H](OC5CCCCO5)CC[C@]4(C)C3CC[C@]12C (stereo partly drawn)
inactive: DLD-1 4.45 µM | DMS-273 1.52 µM | HOP-18 1.42 µM | KM-20L2 2.64 µM | LXFL 529 1.2 µM | M19-MEL 1.76 µM | RXF 631 2.75 µM | SNB-78 2.24 µM

O=C1C=C(Nc2cccnc2)c2ccccc2C1=O
inactive: DLD-1 5.11 µM | DMS-273 6.81 µM | HOP-18 10.3 µM | KM-20L2 > 43.2 µM | LXFL 529 11.4 µM | SNB-78 15.5 µM

CC(=O)c1ccc(NC(=O)C(=O)Nn2c(S)nc3ccccc3c2=O)cc1
inactive: DLD-1 > 100 µM | HOP-18 > 100 µM | KM-20L2 > 100 µM | LXFL 529 > 100 µM | M19-MEL > 100 µM | SNB-78 > 100 µM | XF498 > 100 µM

CCCCCC[C@@H]1CCC2C(CO)[C@@H](O)CC[C@@H]2C1 (stereo partly drawn)
inactive: DLD-1 18.8 µM | DMS-273 20.2 µM | HOP-18 22.4 µM | KM-20L2 18.4 µM | LXFL 529 18.5 µM | M19-MEL 18.2 µM | SNB-78 19.2 µM | XF498 24.7 µM

Cc1cccc(NC(=O)CSc2nnc(Cc3ccccc3)o2)c1
inactive: DLD-1 > 100 µM | DMS-273 > 100 µM | HOP-18 > 100 µM | KM-20L2 > 100 µM | LXFL 529 > 100 µM | SNB-78 > 100 µM

CC1(C)C2CCC3(C2)CS(=O)(=O)N2OC231 (stereo not drawn)
inactive: DLD-1 23.7 µM | DMS-273 29.4 µM | HOP-18 17.6 µM | KM-20L2 16.3 µM | LXFL 529 16.7 µM | M19-MEL 15.7 µM | SNB-78 25.5 µM

C/C(CC(=O)NC1=CC=C(NC(=O)C/C(C)=N\Nc2ccccc2)CC1)=N/Nc1ccccc1
inactive: DLD-1 > 100 µM | DMS-273 27 µM | HOP-18 > 100 µM | KM-20L2 > 100 µM | LXFL 529 > 100 µM | M19-MEL > 100 µM | RXF 631 41.4 µM | SNB-78 > 100 µM | XF498 > 100 µM

CN(C)c1n/c(=N/c2ccc3ccccc3c2)ss1
inactive: DLD-1 15.4 µM | DMS-273 > 10 µM | HOP-18 25.3 µM | KM-20L2 29.6 µM | LXFL 529 9.1 µM | SNB-78 42.6 µM

CCOC(=O)N1N=NC2C3OC(C[C@@]3(C#N)OC(C)=O)[C@H]21 (stereo partly drawn)
inactive: DLD-1 > 100 µM | DMS-273 > 100 µM | HOP-18 > 100 µM | KM-20L2 > 100 µM | LXFL 529 > 100 µM | M19-MEL > 100 µM | RXF 631 > 100 µM | SNB-78 > 100 µM | XF498 > 100 µM

O=C(Cc1ccccc1)N/N=C(/c1nc2ccc([N+](=O)[O-])cc2nc1O)C(O)c1ccc(C(O)/C(=N/NC(=O)Cc2ccccc2)c2nc3ccc([N+](=O)[O-])cc3nc2O)cc1 (stereo not drawn)
inactive: DLD-1 56.8 µM | KM-20L2 12.4 µM | LXFL 529 24.7 µM | M19-MEL 58.9 µM | RXF 631 51.3 µM | XF498 29.8 µM

O=C(CCCCCCCCC(=O)OCC1OC(n2cnc3c(=O)[nH]cnc32)C(O)C1O)OCC1OC(n2cnc3c(=O)[nH]cnc32)C(O)C1O (stereo not drawn)
inactive: DLD-1 > 100 µM | DMS-273 > 100 µM | HOP-18 > 100 µM | KM-20L2 > 100 µM | M19-MEL > 100 µM | SNB-78 > 100 µM | XF498 > 100 µM

Cc1c(-c2ccccc2)c(=O)oc2ccc(Cl)cc12
inactive: DLD-1 > 100 µM | DMS-273 87.1 µM | HOP-18 > 100 µM | LXFL 529 > 100 µM | M19-MEL > 100 µM | SNB-78 26 µM

COCCCNC(=O)CC(=O)NCCCOC
inactive: DLD-1 > 100 µM | HOP-18 > 100 µM | KM-20L2 > 100 µM | LXFL 529 > 100 µM | M19-MEL > 100 µM | RXF 631 > 100 µM | SNB-78 > 100 µM

COc1cc(C(=O)NO)ccc1O
inactive: DLD-1 > 100 µM | DMS-273 > 100 µM | HOP-18 > 100 µM | KM-20L2 > 100 µM | LXFL 529 > 100 µM | M19-MEL > 100 µM | SNB-78 > 100 µM

COc1ccc(C(c2ccccc2C(=O)O)c2ccc(OC)c3ccccc23)c2ccccc12
inactive: DLD-1 7.31 µM | DMS-273 14 µM | HOP-18 3.39 µM | KM-20L2 9.25 µM | LXFL 529 6.35 µM | M19-MEL 12.5 µM | SNB-78 20.9 µM | XF498 20.9 µM

COC(=O)C(Cc1ccccc1)NC(=O)Cn1ccnc1[N+](=O)[O-] (stereo not drawn)
inactive: DMS-273 > 100 µM | HOP-18 67.8 µM | KM-20L2 > 100 µM | LXFL 529 > 100 µM | M19-MEL 95.3 µM | RXF 631 > 100 µM | XF498 > 100 µM

CCOC(=O)C(C(=O)Cc1ccccc1)c1ccccc1 (stereo not drawn)
inactive: DLD-1 > 100 µM | KM-20L2 > 100 µM | LXFL 529 > 100 µM | M19-MEL > 100 µM | SNB-78 > 100 µM | XF498 > 100 µM

COC(=O)C(=O)C(CC(=O)Nc1c(C)cccc1C)C(=O)OC (stereo not drawn)
inactive: DLD-1 > 100 µM | HOP-18 > 100 µM | KM-20L2 > 100 µM | LXFL 529 > 100 µM | M19-MEL > 100 µM | RXF 631 > 100 µM | SNB-78 > 100 µM | XF498 > 100 µM

O=C(/C=C\c1ccccc1O)c1ccc(O)cc1O
inactive: DLD-1 > 100 µM | DMS-273 > 100 µM | HOP-18 55.7 µM | KM-20L2 > 100 µM | LXFL 529 > 100 µM | M19-MEL > 100 µM | RXF 631 > 100 µM | SNB-78 > 100 µM

COc1cc2cccc(/N=C\c3ccccc3Cl)c2cc1OC
inactive: DLD-1 > 100 µM | HOP-18 > 100 µM | KM-20L2 > 100 µM | LXFL 529 > 100 µM | M19-MEL > 100 µM | SNB-78 > 100 µM
